The values that follow are results of earlier work, collected in US8314091B2, “N-benzyl,N'-arylcarbonylpiperazine derivatives” (MSD OSS B.V., priority 2007, dated 2012).

In data set [1] the test system is vascular smooth muscle cell proliferation and neointima formation. The note with it: following balloon injury, in vitro and in vivo.
Data set [2] deals with tumours in an animal model of prostate cancer.
The subject of data set [3] is β-amyloid. The following applies: in vivo.

As to `O=S(=O)(c1ccccc1)N(CC(F)(F)F)c1ccc(C(O)(C(F)(F)F)C(F)(F)F)cc1` [Example T0901317], the “effect on vascular smooth muscle cell proliferation and neointima formation” value in data set [1] was “inhibit vascular smooth muscle cell proliferation and neointima formation”. Besides, the “effect on progression of tumours” value in data set [2] is “delayed progression of tumours”. In data set [3], the “deposition of β-amyloid” value is listed as “lower deposition of β-amyloid” and the memory entry is “improve memory”.
